Experimental data taken from patent publication US6481154B1, “Method of large-scale propagation of trees of genus Swietenia” (Sumitomo Forestry Co., Ltd., priority 2000, dated 2002).

System: terminal buds of Swietenia macrophylla
Experiment: Induction of multiple shoots from terminal buds on modified B5 medium
Format: cell-based
Conditions: IBA 0 mg/l
Description: Terminal buds were excised from mature trees of Swietenia macrophylla and subjected to surface sterilization in 70% ethanol for 30 seconds and then in 2% sodium hypochlorite for 6 minutes, washed several times with sterilized water and dried on a sterilized filter paper.
To a modified B5 medium (which was a B5 medium amounts of all the components were each made a half were added 30 g/l of sucrose, and 0 to 0.02 mg/l of IBA and 0.02 to 1.0 mg/l of BAP as plant growth regulators, followed by pH adjustment to 5.7 and sterilization. The medium so prepared was used as a multiple shoots-inducing medium, and was used at a culturing temperature of 26±2° C. under illumination of fluorescent lamps for 16 hours per day (3,000 to 9,000 Lux). One to 3 months after the start of culturing, multiple shoots were induced.

c1ccc(CNc2ncnc3[nH]cnc23)cc1 [BAP, benzylaminopurine]
Number of formed multiple shoots/Number of total tested terminal buds (BAP 0.02 mg/l): 1/20 | Number of formed multiple shoots/Number of total tested terminal buds (BAP 0.2 mg/l): 5/20 | Number of formed multiple shoots/Number of total tested terminal buds (BAP 1.0 mg/l): 8/20
